# ChEMBL document CHEMBL5550161, “Discovery of novel small molecules targeting the USP21/JAK2/STAT3 axis for the treatment of triple-negative breast cancer” (Eur J Med Chem, 2024)
# Activity calls are given as the source filed them. No cut-off for these calls is given here.
# What was measured:
# HCC1806 [1] = assay: Antitumor activity against human HCC1806 cells xenografted in Balb/c mouse assessed as reduction in tumor volume at 40 to 60 mg/kg, ip bid measured after 14 days; assay type: functional, organism-based; details: dose 40-60 mg/kg, time 14.0 day
# MDA-MB-231 [2] = assay: Induction of apoptosis in human MDA-MB-231 cells assessed as decrease in Bcl-2 level by Western blot analysis; assay type: functional, cell-based; details: dose 0.1-0.4 µM
# HCC1806 [3] = assay: Antitumor activity against human HCC1806 cells xenografted in Balb/c mouse assessed as decrease in STAT3 level at 40 to 60 mg/kg, ip bid measured after 14 days by immunofluorescence based analysis; assay type: functional, organism-based; details: dose 40-60 mg/kg, time 14.0 day
# HCC1806 [4] = assay: Antitumor activity against human HCC1806 cells xenografted in Balb/c mouse assessed as decrease in JAK2 level at 40 to 60 mg/kg, ip bid measured after 14 days by immunofluorescence based analysis; assay type: functional, organism-based; details: dose 40-60 mg/kg, time 14.0 day
# HCC1806 [5] = assay: Induction of apoptosis in human HCC1806 cells assessed as necrotic cells at 1.6 uM incubated for 24 hrs by Annexin V-FITC/PI staining based flow cytometry (reference value: 0.15 %); assay type: functional
# MDA-MB-231 [6] = assay: Induction of apoptosis in human MDA-MB-231 cells assessed as early apoptotic cells at 0.8 uM incubated for 24 hrs by Annexin V-FITC/PI staining based flow cytometry (reference value: 1.16 %); assay type: functional
# MDA-MB-231 [7] = assay: Induction of apoptosis in human MDA-MB-231 cells assessed as late apoptotic cells at 0.1 uM incubated for 24 hrs by Annexin V-FITC/PI staining based flow cytometry (reference value: 1.23 %); assay type: functional
# MDA-MB-231 [8] = assay: Induction of apoptosis in human MDA-MB-231 cells assessed as early apoptotic cells at 0.1 uM incubated for 24 hrs by Annexin V-FITC/PI staining based flow cytometry (reference value: 1.16 %); assay type: functional
# MDA-MB-231 [9] = assay: Induction of apoptosis in human MDA-MB-231 cells assessed as late apoptotic cells at 0.8 uM incubated for 24 hrs by Annexin V-FITC/PI staining based flow cytometry (reference value: 1.23 %); assay type: functional
# HCC1806 [10] = assay: Antitumor activity against human HCC1806 cells xenografted in Balb/c mouse assessed as decrease in Bcl-2 level at 40 to 60 mg/kg, ip bid measured after 14 days by IHC analysis; assay type: functional, organism-based; details: dose 40-60 mg/kg, time 14.0 day
# MDA-MB-231 [11] = assay: Induction of apoptosis in human MDA-MB-231 cells assessed as late apoptotic cells at 0.4 uM incubated for 24 hrs by Annexin V-FITC/PI staining based flow cytometry (reference value: 1.23 %); assay type: functional
# MDA-MB-231 [12] = assay: Induction of cell cycle arrest at G2/M phase in human MDA-MB-231 cells at 0.1 to 0.4 uM incubated for 24 hrs; assay type: functional, cell-based; details: dose 0.1-0.4 µM
# HCC1806 [13] = assay: Anti-proliferative activity against human HCC1806 cells assessed as cell growth inhibition incubated for 72 hrs by MTT assay; assay type: functional, cell-based; details: HCC1806, 72 h
# HCC1806 [14] = assay: Antitumor activity against human HCC1806 cells xenografted in Balb/c mouse at 60 mg/kg, ip bid measured after 14 days relative to control; assay type: functional; details: HCC1806, 336 h, time 14 day, read-out: TGI
# [15] = Toxicity in Balb/c nude mouse assessed as histopathological change in kidney at 60 mg/kg, ip bid for 14 days consecutively; assay type: organism-based; details: in vivo, 336 h, time 14 day
# [16] = target: Tyrosine-protein kinase JAK2 (Homo sapiens, UniProt O60674); assay: Induction of JAK2 degradation in human HCC1806 cells at 0.2 uM incubated for 18 to 72 hrs by Western blot analysis; assay type: cell-based; details: time 18-72 hrs
# HCC1806 [17] = assay: Induction of apoptosis in human HCC1806 cells assessed as early apoptotic cells at 0.1 uM incubated for 24 hrs by Annexin V-FITC/PI staining based flow cytometry (reference value: 0.67 %); assay type: functional
# MDA-MB-231 [18] = assay: Induction of apoptosis in human MDA-MB-231 cells assessed as viable cells at 1.6 uM incubated for 24 hrs by Annexin V-FITC/PI staining based flow cytometry (reference value: 97.54 %); assay type: functional; details: read-out: Activity
# HCC1806 [19] = assay: Induction of apoptosis in human HCC1806 cells assessed as late apoptotic cells at 0.1 uM incubated for 24 hrs by Annexin V-FITC/PI staining based flow cytometry (reference value: 0.23 %); assay type: functional
# HCC1806 [20] = assay: Inhibition of colony formation in human HCC1806 cells at 0.05 uM measured after 7 days; assay type: functional, cell-based; details: time 7.0 day
# MDA-MB-231 [21] = assay: Induction of apoptosis in human MDA-MB-231 cells assessed as ROS production rate at 0.4 uM incubated for 24 hrs by DCFH-DA staining based flow cytometry (reference value: 0.28 %); assay type: functional
# MDA-MB-231 [22] = assay: Inhibition of cell migration in human MDA-MB-231 cells; assay type: functional, cell-based; details: dose 0.05-2 µM
# MDA-MB-231 [23] = assay: Induction of apoptosis in human MDA-MB-231 cells assessed as ROS production rate at 0.2 uM incubated for 24 hrs by DCFH-DA staining based flow cytometry (reference value: 0.28 %); assay type: functional
# Hs-578T = assay: Anti-proliferative activity against human Hs-578T cells assessed as cell growth inhibition incubated for 72 hrs by MTT assay; assay type: functional, cell-based
# MDA-MB-231 [24] = assay: Induction of apoptosis in human MDA-MB-231 cells assessed as viable cells at 0.1 uM incubated for 24 hrs by Annexin V-FITC/PI staining based flow cytometry (reference value: 97.54 %); assay type: functional; details: read-out: Activity
# [25] = Toxicity in Balb/c nude mouse assessed as animal mortality at 60 mg/kg, ip bid for 14 days consecutively; assay type: organism-based; details: in vivo, 336 h, time 14 day
# HCC1806 [26] = assay: Induction of apoptosis in human HCC1806 cells assessed as decrease in JAK2 level by Western blot analysis; assay type: functional, cell-based; details: dose 0.1-0.4 µM
# MDA-MB-231 [27] = assay: Induction of apoptosis in human MDA-MB-231 cells assessed as necrotic cells at 0.4 uM incubated for 24 hrs by Annexin V-FITC/PI staining based flow cytometry (reference value: 0.07 %); assay type: functional
# HCC1806 [28] = assay: Induction of apoptosis in human HCC1806 cells assessed as early apoptotic cells at 0.4 uM incubated for 24 hrs by Annexin V-FITC/PI staining based flow cytometry (reference value: 0.67 %); assay type: functional
# HCC1806 [29] = assay: Induction of apoptosis in human HCC1806 cells assessed as viable cells at 1.6 uM incubated for 24 hrs by Annexin V-FITC/PI staining based flow cytometry (reference value: 98.95 %); assay type: functional; details: read-out: Activity
# HCC1806 [30] = assay: Induction of cell cycle arrest at G2/M phase in human HCC1806 cells at 0.1 to 0.4 uM incubated for 24 hrs; assay type: functional, cell-based; details: dose 0.1-0.4 µM
# HCC1806 [31] = assay: Induction of apoptosis in human HCC1806 cells assessed as decrease in JAK1 level by Western blot analysis; assay type: functional, cell-based; details: dose 0.1-0.4 µM
# HCC1806 [32] = assay: Effect on UCHL3 level in human HCC1806 cells at 0.1 to 0.4 uM incubated for 24 hrs by Western blot analysis; assay type: functional, cell-based; details: dose 0.1-0.4 µM
# HCC1806 [33] = assay: Inhibition of cell migration in human HCC1806 cells; assay type: functional, cell-based; details: dose 0.05-2 µM
# HCC1806 [34] = assay: Induction of apoptosis in human HCC1806 cells assessed as late apoptotic cells at 0.2 uM incubated for 24 hrs by Annexin V-FITC/PI staining based flow cytometry (reference value: 0.23 %); assay type: functional
# HCC1806 [35] = assay: Induction of apoptosis in human HCC1806 cells assessed as early apoptotic cells at 1.6 uM incubated for 24 hrs by Annexin V-FITC/PI staining based flow cytometry (reference value: 0.67 %); assay type: functional
# Sequence of Tyrosine-protein kinase JAK2 (O60674 whole entry): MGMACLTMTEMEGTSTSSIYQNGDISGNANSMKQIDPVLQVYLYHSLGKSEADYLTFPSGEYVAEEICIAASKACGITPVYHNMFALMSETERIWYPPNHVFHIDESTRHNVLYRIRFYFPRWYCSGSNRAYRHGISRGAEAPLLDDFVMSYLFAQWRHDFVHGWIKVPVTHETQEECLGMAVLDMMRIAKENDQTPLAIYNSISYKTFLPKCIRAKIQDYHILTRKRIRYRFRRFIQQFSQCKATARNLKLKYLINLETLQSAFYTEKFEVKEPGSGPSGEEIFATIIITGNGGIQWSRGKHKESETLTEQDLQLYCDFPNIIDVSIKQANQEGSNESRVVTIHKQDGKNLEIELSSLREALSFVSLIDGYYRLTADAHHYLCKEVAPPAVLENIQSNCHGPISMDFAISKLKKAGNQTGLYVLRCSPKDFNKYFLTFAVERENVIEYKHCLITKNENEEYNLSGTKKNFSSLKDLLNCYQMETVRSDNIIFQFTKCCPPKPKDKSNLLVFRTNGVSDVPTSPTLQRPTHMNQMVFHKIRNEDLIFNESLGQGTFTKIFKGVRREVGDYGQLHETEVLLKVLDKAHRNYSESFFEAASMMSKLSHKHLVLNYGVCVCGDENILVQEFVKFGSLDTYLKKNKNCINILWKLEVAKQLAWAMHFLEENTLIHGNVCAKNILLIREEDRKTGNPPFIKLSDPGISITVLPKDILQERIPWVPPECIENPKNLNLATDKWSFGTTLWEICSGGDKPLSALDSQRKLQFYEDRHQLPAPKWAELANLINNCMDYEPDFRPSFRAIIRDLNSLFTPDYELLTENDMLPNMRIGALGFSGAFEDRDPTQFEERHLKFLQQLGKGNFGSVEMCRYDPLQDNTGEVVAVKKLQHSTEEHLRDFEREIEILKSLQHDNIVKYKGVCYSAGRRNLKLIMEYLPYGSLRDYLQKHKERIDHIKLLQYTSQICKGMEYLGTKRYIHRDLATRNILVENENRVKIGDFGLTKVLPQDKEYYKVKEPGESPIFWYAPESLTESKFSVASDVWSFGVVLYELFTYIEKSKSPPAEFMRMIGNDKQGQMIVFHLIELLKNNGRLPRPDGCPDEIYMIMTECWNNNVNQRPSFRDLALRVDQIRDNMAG
structure (smiles),measurement,setting,value
COc1cc(Nc2cc(F)ccc2C(=O)NCCc2c[nH]c3c(F)ccc(F)c23)cc(OC)c1OC,Activity,HCC1806 [1],Active
same,Activity,MDA-MB-231 [2],Active
same,Activity,HCC1806 [3],Active
same,Activity,HCC1806 [4],Active
same,Activity,HCC1806 [5],0.35%
same,Activity,MDA-MB-231 [6],3.18%
same,Activity,MDA-MB-231 [7],1.23%
same,Activity,MDA-MB-231 [8],1.66%
same,Activity,MDA-MB-231 [9],2.15%
same,Activity,HCC1806 [10],Active
same,Activity,MDA-MB-231 [11],1.83%
same,Activity,MDA-MB-231 [12],Active
same,IC50,HCC1806 [13],250 nM
same,inhibition in vivo at 60 mg/kg,HCC1806 [14],67.7%
same,Activity,[15],Non-Toxic
same,Activity,[16],Active
same,Activity,HCC1806 [17],0.65%
same,viability at 1.6 µM,MDA-MB-231 [18],87.4%
same,Activity,HCC1806 [19],0.29%
same,inhibition,HCC1806 [20],Active
same,Activity,MDA-MB-231 [21],3.17%
same,inhibition,MDA-MB-231 [22],Active
same,Activity,MDA-MB-231 [23],1.06%
same,IC50,Hs-578T,590 nM
same,viability at 0.1 µM,MDA-MB-231 [24],96.9%
same,Activity,[25],Non-Toxic
same,Activity,HCC1806 [26],Active
same,Activity,MDA-MB-231 [27],0.14%
same,Activity,HCC1806 [28],2.94%
same,viability at 1.6 µM,HCC1806 [29],92.9%
same,Activity,HCC1806 [30],Active
same,Activity,HCC1806 [31],Active
same,Activity,HCC1806 [32],inactive
same,inhibition,HCC1806 [33],Active
same,Activity,HCC1806 [34],0.45%
same,Activity,HCC1806 [35],4.81%
